According to US20130065260A1, “Compositions, Methods and Uses for Simultaneous Assay of Thrombin and Plasmin Generation” (The Regents of the University of Colorado, a body corporate, priority 2009, published 2013):

B1: TF: recombinant human tissue factor, lipidated and non-lipidated, initiates coagulation (protein, UniProt P13726 33-295, looked up)
Tissue factor: SGTTNTVAAYNLTWKSTNFKTILEWEPKPVNQVYTVQISTKSGDWKSKCFYTTDTECDLTDEIVKDVKQTYLARVFSYPAGNVESTGSAGEPLYENSPEFTPYLETNLGQPTIQSFEQVGTKVNVTVEDERTLVRRNNTFLSLRDVFGKDLIYTLYYWKSSSSGKKTAKTNTNEFLIDVDKGENYCFSVQAVIPSRTVNRKSTDSPVECMGQEKGEFREIFYIIGAVVFVVIILVIILAISLHKCRKAGVGQSWKENSPLNVS
modifications: lipidated and non-lipidated
notes: recombinant human tissue factor, lipidated and non-lipidated, initiates coagulation

Assays:
[1] = tested on: thrombin; experiment: Simultaneous thrombin and plasmin generation (STP) assay, thrombin generation; format: biochemical, human; settings: data not shown; for effect on thrombin generation at heparin 1 U/mL: heparin concentration 1 U/mL
Description: Reactant solution is prepared as described previously for the CloFAL assay developed in our laboratory. Briefly, lipidated recombinant human tissue factor (TF) (American Diagnostica Inc, Stamford, Conn.), non-lipidated recombinant human TF (American Diagnostica Inc), and recombinant two-chain tissue plasminogen activator (tPA) (American Diagnostica Inc) are added to a stock solution of Tris-buffered saline (TBS; 66 mM Tris, 130 mM NaCl, pH=7.0) containing 34 mM CaCl2, to a concentration of 10 pM of TF (made from 8.7 pM non-lipidated TF and 1.3 pM lipidated TF) and 900 ng/mL of tPA. Final concentrations are 5 pM TF and 450 ng/mL tPA after addition of reactant solution to plasma samples, as described below. The assay blank consists of TBS alone. The reactant solution is freshly prepared from stored stock solutions of TBS, aliquoted TF, and aliquoted tPA just prior to assay. Final concentrations of TF and tPA ranging from 0-10 pM and 0-900 ng/mL, respectively, were investigated during assay development, with ultimate concentrations of these reagents (as well as ratio of lipidated to non-lipidated TF) selected based upon empiric experiments designed to optimize precision and analytical sensitivity to pathologically and physiologically altered states of coagulation and fibrinolysis, as previously performed with the CloFAL assay
Two fluorometric substrates were used for the detection of the key enzymes, thrombin and plasmin. […]
For each patient sample to be analyzed, 90 μL of reactant solution was added simultaneously to each well in a flat-bottom, black, 96 well Costar assay plate (Fisher Scientific, Santa Clara, Calif.) using a multi-tip automated pipette. […] The plate was then placed into the fluorescent spectrophotometer (Multi-Mode Microplate Reader Synergy 2, Bio-Tek Instruments, Winooski, Vt.) where it was pre-warmed at 37 ° C. for three minutes. […] The plate was then drawn back into the fluorescent spectrophotometer where the sample is initially mixed for five seconds followed by fluorescent intensity measurements taken from each well every 45 seconds for four hours at a fluorescent emission of […] (as determined by the chosen fluorescent substrates). […] The kinetic fluorometric intensity data were exported to Microsoft Excel for additional data analyses in order to generate the aforementioned calculated parameters from the raw data. […]

[2] = tested on: plasmin; experiment: Simultaneous thrombin and plasmin generation (STP) assay, plasmin generation; format: biochemical, human; settings: data not shown; for effect on plasmin generation at heparin 1 U/mL: heparin concentration 1 U/mL
[3] = normal plasma, corn trypsin inhibitor added to citrate whole blood collection tubes, relative to its absence

Molecule	STP findings (thrombin generation) with contact pathway inhibition [1, 3]	STP findings (plasmin generation) with contact pathway inhibition [2, 3]	effect on thrombin generation at heparin 1 U/mL [1]	effect on plasmin generation at heparin 1 U/mL [2]	thrombin generation capacity, response to exogenous TF ([1]; in vitro)
corn trypsin inhibitor	did not alter STP findings	did not alter STP findings	–	–	–
dalteparin	–	–	ablation	ablation	–
porcine unfractionated heparin sodium	–	–	ablation	ablation	–
B1	–	–	–	–	concentration-responsiveness
